# Literature values, collected in US4904678A, “Sickle cell anemia control” (Norris; Jerome J., priority 1987, dated 1990).
# Tested on: erythrocytes
# Details: about 4 mols of potassium cyanate incorporated per mol of hemoglobin tetramer
compound,measurement,value
N#CO [potassium cyanate],Erythrocytes prevented from sickling,up to 80%
